Test results reported in ChEMBL document CHEMBL1201862, “PubChem BioAssay data set” (2004).
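Exposure lasted 48 hours, with cells grown in 96-well plates and compounds tested at five concentrations. The concentration for 50% growth inhibition is given as GI50.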 Active and inactive are the calls of the source. Rule as the data show it: active = GI50 up to about 1.1 µM and inactive = higher.

Experiments:
Assay in all cases: growth of human tumour cells (NCI), 48 h
[1] = test system: HCT-15
[2] = test system: SF-539
[3] = test system: MOLT-4
[4] = test system: CCRF-CEM
[5] = test system: EKVX
[6] = test system: OVCAR-8
[7] = test system: OVCAR-5
[8] = test system: NCI-H23
[9] = test system: IGROV-1
[10] = test system: A498
[11] = test system: NCI-H226
[12] = test system: K562
[13] = test system: MCF7
[14] = test system: U-251
[15] = test system: OVCAR-4
[16] = test system: HOP-62
[17] = test system: SK-OV-3
[18] = test system: M14
[19] = test system: TK-10
[20] = test system: Hs-578T

Row | SMILES | GI50 [1] | GI50 [2] | GI50 [3] | GI50 [4] | GI50 [5] | GI50 [6] | GI50 [7] | GI50 [8] | GI50 [9] | GI50 [10] | GI50 [11] | GI50 [12] | GI50 [13] | GI50 [14] | GI50 [15] | GI50 [16] | GI50 [17] | GI50 [18] | GI50 [19] | GI50 [20]
1 | CCN1CC2(CO)CCC(OC)C34C5CC6C(OC)CC(O)(C5C6OC)C(O)(C(OC)C23)C14 (centres undefined) | > 375 µM | > 375 µM (inactive) | > 375 µM (inactive) | > 375 µM (inactive) | > 59.4 µM (inactive) | > 375 µM (inactive) | > 177 µM (inactive) | > 375 µM (inactive) | > 375 µM (inactive) | > 375 µM (inactive) | > 375 µM (inactive) | > 375 µM (inactive) | > 375 µM (inactive) | > 305 µM (inactive) | > 375 µM (inactive) | > 375 µM (inactive) | > 375 µM (inactive) |  |  | 
2 | O=C(O)CCC(NC(=O)c1ccc(Nc2nc3ccc(C(F)(F)F)cc3nc2-c2ccccc2)cc1)C(=O)O (centres undefined) | > 100 µM | > 100 µM (inactive) | > 100 µM (inactive) | > 100 µM (inactive) | > 100 µM (inactive) | > 100 µM (inactive) | > 100 µM (inactive) | > 100 µM (inactive) | > 100 µM (inactive) | > 100 µM (inactive) | > 100 µM (inactive) | 29.6 µM (inactive) | > 100 µM (inactive) | > 83 µM (inactive) | > 100 µM (inactive) | > 100 µM (inactive) | > 100 µM (inactive) |  |  | 
3 | O=C1c2cccc(NCCNCCO)c2C(=O)c2cccc(NCCNCCO)c21 | 5.28 µM | 0.601 µM (active) | 0.443 µM (active) | 0.267 µM (active) | 1.78 µM (inactive) | 0.989 µM (active) | 1.53 µM (inactive) | 1.87 µM (inactive) | 1.56 µM (inactive) | 2.48 µM (inactive) | 0.998 µM (active) | 1.12 µM (active) | 0.39 µM (active) | 0.792 µM (active) | 0.889 µM (active) | 1.29 µM (inactive) | 2.26 µM (inactive) | 1.81 µM (inactive) | 3.73 µM (inactive) | 
4 | COc1ccc(C2=Nc3c(nc(SC)[nH]c3=O)NC(c3ccccc3)C2)cc1 (centres undefined) |  | 19.4 µM (inactive) | 18.7 µM (inactive) | 29 µM (inactive) | 24.4 µM (inactive) | 19.4 µM (inactive) | 34.5 µM (inactive) | 20.6 µM (inactive) | 19.5 µM (inactive) | 33.3 µM (inactive) | 26.2 µM (inactive) | 25.1 µM (inactive) | 17.1 µM (inactive) | 18.9 µM (inactive) |  | 35.4 µM (inactive) | 18.1 µM (inactive) | 25.4 µM (inactive) |  | 
5 | COC(=O)CCCc1nc2ccccc2nc1/N=N/c1ccccc1 | 23.9 µM | 70.8 µM (inactive) | 9.93 µM (inactive) | 30.1 µM (inactive) | 73.6 µM (inactive) | 22 µM (inactive) | > 100 µM (inactive) | 39 µM (inactive) | 25.5 µM (inactive) | > 100 µM (inactive) | 43 µM (inactive) | 19.3 µM (inactive) | 30.8 µM (inactive) | 53.6 µM (inactive) | 50.8 µM (inactive) | 52.5 µM (inactive) | > 100 µM (inactive) | 27.6 µM (inactive) | > 100 µM (inactive) | 
6 | N#CSC/C(Cl)=C/Cl.N#CSC/C(Cl)=C\Cl | > 100 µM | > 100 µM (inactive) | 29.7 µM (inactive) | 34.8 µM (inactive) | > 100 µM (inactive) | > 100 µM (inactive) | 63.2 µM (inactive) | > 100 µM (inactive) | > 100 µM (inactive) | > 100 µM (inactive) | > 100 µM (inactive) | > 100 µM (inactive) |  | > 100 µM (inactive) | > 100 µM (inactive) | > 100 µM (inactive) | > 100 µM (inactive) | > 100 µM (inactive) | > 100 µM (inactive) | > 100 µM (inactive)
7 | O=CNc1cccc2c3c([nH]c12)CCCCCC3 | > 100 µM | > 100 µM (inactive) | 66.1 µM (inactive) | > 77.8 µM (inactive) | > 100 µM (inactive) | > 100 µM (inactive) | > 100 µM (inactive) | > 100 µM (inactive) | 83.2 µM (inactive) | 76.6 µM (inactive) | > 100 µM (inactive) | 67.9 µM (inactive) | > 100 µM (inactive) | > 100 µM (inactive) | > 100 µM (inactive) | > 100 µM (inactive) | > 100 µM (inactive) |  |  | 
8 | CC1=C(C#N)C23C(=O)c4ccccc4C(=O)C2=C(O)C=CC3(O)N1 (centres undefined) | 2.44 µM | 2.86 µM (inactive) | 0.484 µM (active) | 0.365 µM (active) | 5.82 µM (inactive) | 5.09 µM (inactive) | 4.76 µM (inactive) | 3.84 µM (inactive) | 2.38 µM (inactive) | 21 µM (inactive) | 15.7 µM (inactive) | 1.15 µM (inactive) | 0.597 µM (active) | 8.39 µM (inactive) | 1.97 µM (inactive) | 5.4 µM (inactive) | 52 µM (inactive) | 2.19 µM (inactive) | 14.3 µM (inactive) | 
9 | CN(C)CCNCc1c2ccccc2c(CNCCN(C)C)c2ccccc12 | 41.1 µM | 28.2 µM (inactive) | 2.2 µM (inactive) | 20.8 µM (inactive) | 65.8 µM (inactive) | 31.6 µM (inactive) | 17.1 µM (inactive) | 36 µM (inactive) | 26.6 µM (inactive) | 27.1 µM (inactive) | 19.5 µM (inactive) | 17.8 µM (inactive) | 26 µM (inactive) | 20.9 µM (inactive) | 28.3 µM (inactive) | 18 µM (inactive) | 16.9 µM (inactive) |  |  | 
10 | Nc1nc(=O)n(C2OC(CO)C(O)C2O)cc1F (centres undefined) | 3.13 µM | 37.4 µM (inactive) | < 0.0166 µM (active) | < 0.0136 µM (active) |  | 0.222 µM (active) | 0.855 µM (active) | 0.191 µM (active) | > 100 µM (inactive) | > 100 µM (inactive) | > 100 µM (inactive) | 0.506 µM (active) | 3.99 µM (inactive) | 3.72 µM (inactive) | > 100 µM (inactive) | 0.228 µM (active) | > 100 µM (inactive) |  |  | 
11 | O[C@H]1[C@H](O)[C@@H](O)CN2CC[C@H](O)[C@H]12 [CASTANOSPERMINE] | > 100 µM | > 100 µM (inactive) | > 100 µM (inactive) | > 100 µM (inactive) | > 100 µM (inactive) | > 100 µM (inactive) | > 100 µM (inactive) | > 100 µM (inactive) | > 100 µM (inactive) | > 100 µM (inactive) | > 100 µM (inactive) | > 100 µM (inactive) | > 100 µM (inactive) | > 100 µM (inactive) | > 86.7 µM (inactive) | > 100 µM (inactive) | > 100 µM (inactive) |  |  | 
12 | COc1ccc(-c2oc3cc(O)cc(O)c3c(=O)c2OC)cc1 [ERMANIN] | 23.4 µM |  | 20.9 µM (inactive) | 22.1 µM (inactive) | 51.2 µM (inactive) | 44.1 µM (inactive) | > 100 µM (inactive) |  | 28.3 µM (inactive) | 24.4 µM (inactive) |  | 9.79 µM (inactive) | 38.5 µM (inactive) | 18 µM (inactive) | 44.6 µM (inactive) | 26.6 µM (inactive) | 4.66 µM (inactive) | 37.2 µM (inactive) | 39.9 µM (inactive) | 
